According to patent US8394825B2, “Compound” (Sterix Limited, priority 2007, dated 2013):
Where two headings read alike, the source gives them in different places.

Test system: DU145 cells
Assay: Antiproliferative assay in DU145 cells, WST-1 cell proliferation assay, 96 hours (GI50)
Assay type: cell-based
Conditions: triplicate
Description: Antiproliferative assays. DU145 cells were seeded into 96 well microtiter plates (5000 cells/well) and treated with […] of compounds or with vehicle control. At 96 hours post-treatment, live cell counts were determined by WST-1 cell proliferation assay (Roche, Penzberg, Germany), as per manufacturer's instructions. Viability results were expressed as a percentage of mean control values resulting in the calculation of the 50% growth inhibition (GI50). All experiments were performed in triplicate.

[1] = 96 hours post-treatment, read-out: DU-145 GI50
[2] = Homo sapiens, DU-145, 96 hours post-treatment

COc1cc2c(cc1OS(N)(=O)=O)CCN(Cc1cccc(OC(F)(F)F)c1)C2 [compound 102, 7-Methoxy-2-(3-trifluoromethoxybenzyl)-6-O-sulfamoyl-1,2,3,4-tetrahydroisoquinoline]
GI50 [1]: < 10 µM

COc1cc2c(cc1OS(N)(=O)=O)CCN(Cc1cccc(OC(C)C)c1)C2 [compound 104, 2-(3-Isopropoxybenzyl)-7-methoxy-6-O-sulfamoyl-1,2,3,4-tetrahydroisoquinoline]
GI50 [1]: < 10 µM

COc1ccc(C(=O)N2CCc3cc(OCc4ccccc4)ccc3C2)cc1OC [compound 109, 6-Benzyloxy-2-(3,4-Dimethoxybenzoyl)-1,2,3,4-tetrahydroisoquinoline]
GI50 [2]: 10 to 50 µM

COc1cc(OC)cc(C(=O)N2CCc3cc(O)c(OC)cc3C2)c1 [compound 119, 2-(3,5-Dimethoxybenzoyl)-6-hydroxy-7-methoxy-1,2,3,4-tetrahydroisoquinoline]
GI50 [2]: < 10 µM

COc1cc2c(cc1OS(N)(=O)=O)CCN(C(=O)c1ccccc1OC)C2 [compound 122, 7-Methoxy-2-(2-methoxybenzoyl)-6-O-sulfamoyl-1,2,3,4-tetrahydroisoquinoline]
GI50 [1]: 10 to 50 µM

COc1cccc(C(=O)N2CCc3cc(OS(N)(=O)=O)c(OC)cc3C2)c1 [compound 123, 7-Methoxy-2-(3-methoxybenzoyl)-6-O-sulfamoyl-1,2,3,4-tetrahydroisoquinoline]
GI50 [1]: < 10 µM

COc1ccc(C(=O)N2CCc3cc(OS(N)(=O)=O)c(OC)cc3C2)cc1 [compound 124, 7-Methoxy-2-(4-methoxybenzoyl)-6-O-sulfamoyl-1,2,3,4-tetrahydroisoquinoline]
GI50 [1]: < 10 µM

COc1cc2c(cc1OS(N)(=O)=O)CCN(C(=O)c1cc(OC)c(OC)c(OC)c1)C2 [compound 127, 7-methoxy-6-O-sulfamoyl-2-(3,4,5-trimethoxybenzoyl)-1,2,3,4-tetrahydroisoquinoline]
GI50 [1]: < 10 µM

COc1cc2c(cc1OCc1ccccc1)CCN(C(=O)c1ccc(C#N)cc1)C2=O [compound 136, 6-(Benzyloxy)-2-(4-cyanobenzoyl)-7-methoxy-3,4-dihydro-2H-isoquinoline-1-one]
GI50 [2]: > 100 µM

COc1ccc(C(=O)N2CCc3cc(OS(N)(=O)=O)c(OC)cc3C2=O)cc1 [compound 147, 2-(4-Methoxybenzoyl)-7-methoxy-6-O-sulfamoyl-3,4-dihydro-2H-isoquinolin-1-one]
GI50 [1]: > 100 µM

COc1cc2c(cc1OS(N)(=O)=O)CCN(C(=O)c1ccccc1OC)C2=O [compound 148, 7-Methoxy-2-(2-methoxybenzoyl)-6-O-sulfamoyl-3,4-dihydro-2H-isoquinolin-1-one]
GI50 [1]: < 10 µM

COc1cccc(C(=O)N2CCc3cc(OS(N)(=O)=O)c(OC)cc3C2=O)c1 [compound 149, 7-Methoxy-2-(3-methoxybenzoyl)-6-O-sulfamoyl-3,4-dihydro-2H-isoquinolin-1-one]
GI50 [1]: < 10 µM

COc1cc(OC)cc(C(=O)N2CCc3cc(OS(N)(=O)=O)c(OC)cc3C2=O)c1 [compound 150, 2-(3,5-Dimethoxybenzoyl)-7-methoxy-6-O-sulfamoyl-3,4-dihydro-2H-isoquinolin-1-one]
GI50 [1]: < 10 µM

COc1ccc(C(=O)N2CCc3cc(OS(N)(=O)=O)c(OC)cc3C2=O)cc1OC [compound 151, 2-(3,4-Dimethoxybenzoyl)-7-methoxy-6-O-sulfamoyl-3,4-dihydro-2H-isoquinolin-1-one]
GI50 [1]: < 10 µM

COc1cc2c(cc1OS(N)(=O)=O)CCN(C(=O)c1cc(OC)c(OC)c(OC)c1)C2=O [compound 152, 7-methoxy-6-O-sulfamoyl-2-(3,4,5-trimethoxybenzoyl)-3,4-dihydro-2H-isoquinolin-1-one]
GI50 [1]: < 10 µM

COc1cc2c(cc1OS(N)(=O)=O)CCN(C(=O)c1cccc(C#N)c1)C2=O [compound 153, 2-(3-Cyanobenzoyl)-7-methoxy-6-O-sulfamoyl-3,4-dihydro-2H-isoquinoline-1-one]
GI50 [1]: 10 to 50 µM

COc1ccc(CN2CCc3cc(O[Si](C(C)C)(C(C)C)C(C)C)c(OC)cc3C2=O)cc1 [compound 154, 7-Methoxy-2-(4-methoxybenzyl)-6-(triisopropylsilyloxy)-3,4-dihydro-2H-isoquinolin-1-one]
GI50 [2]: > 100 µM

COc1ccc(CN2CCc3cc(OS(N)(=O)=O)c(OC)cc3C2)cc1 [compound 164, 7-Methoxy-2-(4-methoxybenzyl)-6-O-sulfamoyl-3,4-dihydro-2H-isoquinoline]
GI50 [1]: > 100 µM

COc1ccccc1CN1CCc2cc(OS(N)(=O)=O)c(OC)cc2C1 [compound 165, 7-Methoxy-2-(2-methoxybenzyl)-6-O-sulfamoyl-3,4-dihydro-2H-isoquinoline]
GI50 [1]: > 100 µM

COc1cccc(CN2CCc3cc(OS(N)(=O)=O)c(OC)cc3C2)c1 [compound 166, 7-Methoxy-2-(3-methoxybenzyl)-6-O-sulfamoyl-3,4-dihydro-2H-isoquinoline]
GI50 [1]: > 100 µM

COc1cc(CN2CCc3cc(OS(N)(=O)=O)c(OC)cc3C2=O)cc(OC)c1 [compound 167, 2-(3,5-Dimethoxybenzyl)-7-methoxy-6-O-sulfamoyl-3,4-dihydro-2H-isoquinolin-1-one]
GI50 [1]: > 100 µM

COc1cc2c(cc1OS(N)(=O)=O)CCN(Cc1cc(OC)c(OC)c(OC)c1)C2=O [compound 168, 7-methoxy-6-O-sulfamoyl-2-(3,4,5-trimethoxybenzyl)-3,4-dihydroisoquinolin-1 (2H)-one]
GI50 [1]: > 100 µM

COc1cc2c(cc1OCc1ccccc1)CCN(S(=O)(=O)c1cccc(Cl)c1)C2 [compound 173, 6-Benzyloxy-2-(3-chloro-benzenesulfonyl)-7-methoxy-1,2,3,4-tetrahydroisoquinoline]
GI50 [2]: > 100 µM

COc1cc2c(cc1O[Si](C(C)C)(C(C)C)C(C)C)CCN(S(=O)(=O)c1cccc(C#N)c1)C2 [compound 174, 2-(3-Cyano-benzenesulfonyl)-6-triisopropylsilyloxy-7-methoxy-1,2,3,4-tetrahydroisoquinoline]
GI50 [2]: > 100 µM

COc1cc2c(cc1OS(N)(=O)=O)CCN(S(=O)(=O)c1cccc(C#N)c1)C2 [compound 187, 2-(3-Cyano-benzenesulfonyl)-7-methoxy-6-O-sulfamoyl-1,2,3,4-tetrahydroisoquinoline]
GI50 [1]: > 100 µM

COc1cccc(S(=O)(=O)N2CCc3cc(OS(N)(=O)=O)c(OC)cc3C2)c1 [compound 188, 7-Methoxy-2-(3-methoxy-benzenesulfonyl)-6-O-sulfamoyl-1,2,3,4-tetrahydroisoquinoline]
GI50 [1]: 50 to 100 µM

COc1cc2c(cc1OS(N)(=O)=O)CCN(S(=O)(=O)c1cccc(C(F)(F)F)c1)C2 [compound 189, 7-Methoxy-6-O-sulfamoyl-2-(3-trifluoromethyl-benzenesulfonyl)-1,2,3,4-tetrahydroisoquinoline]
GI50 [1]: 10 to 50 µM

COc1cc2c(cc1OS(N)(=O)=O)CCN(S(=O)(=O)c1cccc(Cl)c1)C2 [compound 190, 2-(3-Chloro-benzenesulfonyl)-7-methoxy-6-O-sulfamoyl-1,2,3,4-tetrahydroisoquinoline]
GI50 [1]: 10 to 50 µM

COc1cc2c(cc1OS(N)(=O)=O)CCN(S(=O)(=O)c1cccc(C)c1)C2 [compound 191, 7-Methoxy-6-O-sulfamoyl-2-(toluene-3-sulfonyl)-1,2,3,4-tetrahydroisoquinoline]
GI50 [1]: 10 to 50 µM

COc1cc2c(cc1OS(N)(=O)=O)CCN(S(=O)(=O)c1cccc(OC(F)(F)F)c1)C2 [compound 192, 7-Methoxy-6-O-sulfamoyl-2-(3-trifluoromethoxy-benzenesulfonyl)-1,2,3,4-tetrahydroisoquinoline]
GI50 [1]: 50 to 100 µM
